Read-outs that look alike come from different tables or passages of the source.
Key:
[1] = biological target: T1, RosA (N,N-8-demethyl-8-amino-D-riboflavin dimethyltransferase) (Streptomyces davaonensis, UniProt K4RFM2); assay: isothermal titration calorimetry; assay type: binding
T1 construct: full length, hexahistidine-tagged (pET24a(+)rosA-His6, pFJ02), tag kept, E. coli Rosetta 2 (DE3); 353 amino acids; subunit 38 kDa, native 77 kDa, homodimer
Description: isothermal titration calorimetry on RosA (N,N-8-demethyl-8-amino-D-riboflavin dimethyltransferase)

[2] = biological target: T1, RosA (N,N-8-demethyl-8-amino-D-riboflavin dimethyltransferase); assay: initial rates of RoF formation at […] nm, Henderson plot (tight-binding inhibition); assay type: biochemical
[3] = biological target: N,N‐8‐demethyl‐8‐amino‐D‐riboflavin dimethyltransferase (RosA), hexahistidine‐tagged (Streptomyces davawensis); assay: SEC; Superdex 200 10/300 GL, 25 °C, 50 mM Tris-HCl pH 8.0 with 100 mM NaCl, 0.5 mL/min, calibrated with standard proteins; native mass about 77 kDa against a subunit mass of 38 kDa
purified protein [4] = substrate: C[S+](CC[C@H](N)C(=O)O)C[C@H]1O[C@@H](n2cnc3c(N)ncnc32)[C@H](O)[C@@H]1O; assay: purified protein; settings: varied AF (20-100 μM), 50 mM Tris/HCl pH 8.0, 100 mM NaCl, 25 °C, random-order bi-bi
purified protein [5] = substrate: Cc1cc2nc3c(=O)[nH]c(=O)nc-3n(C[C@H](O)[C@H](O)[C@H](O)CO)c2cc1N; assay: purified protein; assay type: biochemical, Streptomyces davaonensis; settings: varied SAM (20-250 μM), 50 mM Tris/HCl pH 8.0, 100 mM NaCl, 25 °C, random-order bi-bi

**Q.** Which Kd ([1]; read-out: AF) does the source give for Cc1cc2nc3c(=O)[nH]c(=O)nc-3n(C[C@H](O)[C@H](O)[C@H](O)CO)c2cc1N [AF] here?
**A.** The Kd was 10 ± 1 µM.

**Q.** How did the Kd ([1]; read-out: RoF) turn out when Cc1cc2nc3c(=O)[nH]c(=O)nc-3n(C[C@H](O)[C@H](O)[C@H](O)CO)c2cc1N(C)C [RoF] was run?
**A.** The Kd was 0.8 ± 0.05 µM.

**Q.** And the Ki [2]?
**A.** Its Ki is 27 µM.

**Q.** With Nc1ncnc2c1ncn2[C@@H]1O[C@H](CSCC[C@H](N)C(=O)O)[C@@H](O)[C@H]1O [SAH] as the molecule, how does the Kd ([1]; read-out: SAH) read?
**A.** Its Kd is 2 ± 0.1 µM.

**Q.** And the Ki [2]?
**A.** Its Ki is 7 µM.

**Q.** With C[S+](CC[C@H](N)C(=O)O)C[C@H]1O[C@@H](n2cnc3c(N)ncnc32)[C@H](O)[C@@H]1O (some centres unmarked) [SAM] as the molecule, how does the Kd [1] read?
**A.** The Kd was 22 ± 2 µM.

**Q.** Which stoichiometry N [3] does the source give for “N,N‐8‐demethyl‐8‐amino‐D‐riboflavin dimethyltransferase (RosA), hexahistidine‐tagged (enzyme)” here?
**A.** The stoichiometry N was 2.

B1: RosA (N,N-8-demethyl-8-amino-D-riboflavin dimethyltransferase) (Streptomyces davaonensis JCM 4913) (protein)
chain: MRPEPTEHPERTAAQRLYQYNVDLKVAFVLYAVAKLHLPDLLADGPRTTADLAAATGSDPSRLRRLLRAAAGADALREVPEDSFELAPMGDLLRSGHPRSMRGMTTFFAEPDVLAAYGDLVESVRTGVPAFQLRHREPLYDFLARPQHKEVRDEFDAAMVEFGQYFADDFLTSFDFGRFTRFADIGGGRGQFLAGVLTAVPSSTGVLVDGPAVAASAHKFLASQNLTERVEVRIGDFFDVLPTGCDAYVLRGVLEDWADADAVRLLVRIRQAMGDAPEARLLILDSVIGETGELGKVLDLDMLVLVEGEHRTRAQWDDLLARAGFDIVGIHPAGDVWAVIECRGTAG
notes: full length, hexahistidine-tagged (pET24a(+)rosA-His6, pFJ02), tag kept, E. coli Rosetta 2 (DE3); 353 amino acids; subunit 38 kDa, native 77 kDa, homodimer
**Q.** With B1 as the molecule, how does the Km (purified protein [4]) read?
**A.** The Km was 70 µM.

**Q.** And the kcat (purified protein [4])?
**A.** The kcat was 0.001 s⁻¹.

**Q.** What about the Km (purified protein [5]) of the same molecule?
**A.** Its Km is 4 µM.

**Q.** What about the kcat (purified protein [5]) of the same molecule?
**A.** The kcat was 0.001 s⁻¹.

— publication PMC4982073, “Structural and kinetic studies on RosA, the enzyme catalysing the methylation of 8‐demethyl‐8‐amino‐D‐riboflavin to the antibiotic roseoflavin” (The Febs Journal, 2016)
